Measured values reported in patent publication US20150210796A1, “Novel Compound, Novel Polymer, Colorant Including the Same, Positive Photosensitive Resin Composition Including the Same, and Color Filter” (Samsung SDI Co., Ltd., priority 2014, published 2015).

Assay: Solubility: dissolution state of compound in dilution solvent
Format: physicochemical
Details: agitated at 25° C. and 100 rpm for 1 hour; for Amount of dissolved compound, diluted solvent (Anone): 0.5 g compound added to Anone (cyclohexanone); for Amount of dissolved compound, diluted solvent (PGMEA): 0.5 g compound added to PGMEA
Method: 0.5 g of each compound represented by Chemical Formulae 3-1 and 7-1 is respectively added to a dilution solvent (PGMEA, Anone, MeOH) to prepare each solution, the solution is agitated at 25° C. and 100 rpm for 1 hour with a mix rotor (MIXROTAR VMR-5, Luchi Deiseido Co., Ltd.) to examine dissolution state of the compound (the content of the dissolved compound), and the results are provided in the following Table 1. (Anone indicates cyclohexanone)

Row | Amount of dissolved compound, diluted solvent (Anone) | Amount of dissolved compound, diluted solvent (MeOH) (0.5 g compound added to MeOH) | Amount of dissolved compound, diluted solvent (PGMEA) | SMILES
1 | 3.0 wt % | equal to 10.0 wt % | 0.1 wt % | C=C(C)C(=O)OCCN(CCCCCCCCCCCCCCCC)S(=O)(=O)c1ccc(-c2c3ccc(=[N+](CC)CC)cc-3oc3cc(N(CC)CC)ccc23)c(S(=O)(=O)[O-])c1 [Chemical Formula 7-1]
2 | equal to 0.1 wt % |  | to 0.1 wt % | C=C(C)C(=O)OCCNS(=O)(=O)c1ccc(-c2c3ccc(=[N+](CC)CC)cc-3oc3cc(N(CC)CC)ccc23)c(S(=O)(=O)[O-])c1 [Chemical Formula 3-1]
